# Measured values published in patent US12090132B2, “Tris DBA pharmaceutical composition and its use for treating autoimmune diseases” (National Defense Medical Center, priority 2019, dated 2024).
# “Also recorded” adds a separate entry of the source.
# Columns and labels:
# MAPK (pERK, pJNK, pp38) = assay: Western Blot of MAPK phosphorylation in J774A.1 cells; type: cell-based, mouse
# NLRP3 inflammasome = NLRP3 inflammasome activation in LPS/ATP-treated J774A.1 cells (ELISA, Western Blot); type: cell-based, mouse
# Protocol: Each group was treated with 0, 0.1, 0.5 and 1 μM Tris DBA culture medium for 30 minutes, reacting with 1 μg/ml lipopolysaccharide (LPS) of NLRP3 inflammasome typical activator for 5.5 hours. Finally, it reacted with 5 mM ATP reagent for 30 minutes, the IL-1β and caspase-1 cytokines were tested by ELISA.
# The protein expression was analyzed by Western Blot, the cells and Tris DBA were cultured for 1 hour, and cultured with two groups with LPS or without LPS respectively for 5.5 hours to test the expression level of cytokines (NLRP3, caspase-1, pro-caspase-1, pro-IL-1β, pro-IL-1β) in cells. This step refers to the data from prior literature (Chang Y P, et. al. 2015. Resveratrol inhibits NLRP3 inflammasome activation by preserving mitochondrial integrity and augmenting autophagy.
# NF-κB = NF-κB activation in J774A.1 cells; type: cell-based, mouse; details: FIG. 1I
# [1] = system: autophagy factors Atg5, LC3BI/II, p62; assay: Autophagy factor expression in J774A.1 cells (Western Blot); type: cell-based, mouse; details: concentration-dependent
# [2] = system: CD4 T cells of OVA-TCR transgenic mouse; assay: Antigen-specific T cell proliferation ([3H]-thymidine) and IFN-γ/IL-4, OVA-TCR CD4 T cells cultured with BMDCs; type: cell-based; details: FIG. 3L
# Protocol: The CD4 T cells of OVA-TCR transgenic mouse and T cell proliferation of antigenic specificity are used to analyze the manifestation of dendritic cell antigen. The OVA323-339 peptide reacts with LPS and LPS+Tris DBA groups for 16 hours respectively. The CD4 T cells abstracted from OVA-TCR transgenic mouse are cultured with BMDCs as per ratios of 1:0, 1:1, 1:2 and 1:4, the T cell proliferation is determined by radioactive [3H]-thymidine, and the processed cell supernatant is used for testing the IFN-γ and IL-4 expression levels in Th1 and Th2 cells according to the operational manual of commercial reagent kit.
# ASLN mouse (NZB/WF1) [3] = assay: T cell subsets in ASLN mouse model (NZB/WF1); type: in vivo; details: Week 5, FIG. 3C
# Protocol: (§1) Improve mouse animal model of accelerated aggravated lupus nephritis8-week-old female mouse (NZB/WF1) model is used for experiment in this embodiment, the mice are randomly divided into two groups (treatment group Tris DBA, negative control group Katimin-1), 7 mice per group, the LPS (0.6 mg/kg) is injected into the abdominal cavity of mouse twice a week, the Tris DBA (30 mg/kg) or Katimin-1® is applied by intraperitoneal injection in one week after injection, the mice are sacrificed in Week 3 and Week 5 respectively.
# ASLN mouse (NZB/WF1) [4] = assay: Urine protein and renal function in ASLN mouse model; type: in vivo; details: 30 mg/kg intraperitoneal
# Protocol: as §1
# The mouse urine is collected weekly, and the serum is collected when the mice are sacrificed in Week 3 and Week 5, the changes in three biochemical indexes, which are creatinine (Cr), BUN and albumin/creatinine ratio (ACR) in urine, are tested according to the operational manual of commercial reagent kit, so as to analyze the changes in renal function.
# ASLN mouse (NZB/WF1) [5] = assay: Renal pathology (PAM, IHC) and autoantibody in ASLN mouse model; type: in vivo
# Protocol: as §1
# When the mice are sacrificed in Week 3 and Week 5, the renal tissue is taken for analysis, the renal cortex tissue is stained by PAM to analyze the content of immunoglobulin G (IgG) and serum complement C3, and the content of F4/80+ macrophages and CD30+ T cells is analyzed by IHC, so as to detect specific antigen molecules in tissue slice and to perform positioning, qualitative and quantitative analyses.
# ASLN mouse kidney = assay: Protein expression in renal tissue of ASLN mouse; type: in vivo
# Protocol: as §1
# The renal tissue is thoroughly mixed with RIPA lysis, the expression levels of proteins Atg5, LC3B, p62, NLRP3, caspase-1, IL-1β, p47phox, NQO1, pERK, pJNK and pp38 are tested by gel electrophoresis (SDS-page).
# ASLN mouse (NZB/WF1) [6] = assay: ROS (superoxide anion) in urine, serum and renal tissue of ASLN mouse; type: in vivo; details: Week 3 and Week 5, versus Katimin-1 group
# Protocol: as §1
# The ASLN mouse urine, serum and renal tissue obtained in Embodiment 2.4 are used to test antioxidant activity. The ROS content is tested according to operational manual of commercial reagent kit, the fluorescence probe dihydroethidium (Dihydroethidium, DHE) reacts with mouse urine and serum. The experimental results are represented as RLU/15 min/ml; the renal tissue is represented as RLU/15 min/mg dry weight.
# BMDM cells = assay: Mitochondrion ROS in mouse BMDM; type: cell-based; details: LPS 1 μg/mL 5.5 hours, ATP 30 minutes, FIGS. 6D-6E
# Protocol: The generation of mitochondrion ROS in the mouse BMDM is tested by using mitosox principle. There are two experimental groups (treatment group Tris DBA, negative control group NAC), reacting with 1 μg/mL LPS and cells for 5.5 hours, treated with ATP for 30 minutes, treated with commercial reagent H2DCFDA for one hour, so as to evaluate the cellular infiltration fluorescence intensity.
# ASLN mouse (NZB/WF1) [7] = assay: Renal pathology (PAM, IHC) and autoantibody in ASLN mouse model; type: in vivo; details: ASLN mouse kidney
smiles,measurement,setting,value
O=C(/C=C/c1ccccc1)/C=C/c1ccccc1.O=C(/C=C/c1ccccc1)/C=C/c1ccccc1.O=C(/C=C/c1ccccc1)/C=C/c1ccccc1.[Pd].[Pd] [Tris DBA],pERK expression level,"MAPK (pERK, pJNK, pp38); FIG. 1A",can inhibit
same,pJNK expression level,"MAPK (pERK, pJNK, pp38); FIG. 1B",can inhibit
same,pp38 expression level,"MAPK (pERK, pJNK, pp38); FIG. 1C",can inhibit
same,NLRP3 protein expression level,NLRP3 inflammasome; FIG. 1F,can inhibit
same,pro-IL-1β protein expression level,NLRP3 inflammasome; FIG. 1G,can inhibit
same,expression level of IL-1β,NLRP3 inflammasome; FIGS. 2J-2K,can inhibit
same,"cytokines induced by LPS (IL-1β, caspase-1, pro-IL-1β) of cell supernatant","NLRP3 inflammasome; Western Blot, FIG. 2B",can inhibit
same,activation of NLRP3 inflammasome (IL-1β induced by LPS),"NLRP3 inflammasome; after treatment with ATP, FIG. 2A",inhibit
same,NF-κB activation,NF-κB,will not affect; also recorded: fails to inhibit
same,LC3BI/II expression level,"[1]; FIG. 2C, 2E",promotes
same,p62 expression level,"[1]; FIG. 2C, 2F",promotes
same,Atg5 expression level,[1]; FIG. 2C-2D,promotes
same,proliferation of T cells,[2],inhibit
same,regulated T cells FoxP3+CD25+CD4+,ASLN mouse (NZB/WF1) [3],will not inhibit; also recorded: significantly increase
same,BUN,"ASLN mouse (NZB/WF1) [4]; favorable inhibitory effect in Week 3, FIG. 4A",inhibits
same,creatinine,"ASLN mouse (NZB/WF1) [4]; favorable inhibitory effect in Week 3, FIG. 4B",inhibits
same,urine ACR,"ASLN mouse (NZB/WF1) [4]; favorable inhibitory effect in Week 3, FIG. 4C",inhibits
same,content of immunoglobulin G (IgG),ASLN mouse (NZB/WF1) [5]; ASLN mouse kidney,can obviously inhibit
same,content of serum complement C3,ASLN mouse (NZB/WF1) [5]; ASLN mouse kidney,can obviously inhibit
same,content of F4/80+ macrophages,"ASLN mouse (NZB/WF1) [5]; ASLN mouse kidney, IHC",can obviously inhibit
same,glomerular cell proliferation,"ASLN mouse (NZB/WF1) [5]; ASLN mouse renal tissue, PAM stain, FIG. 4E",obviously inhibits
same,glomerular crescent structure proliferation,"ASLN mouse (NZB/WF1) [5]; ASLN mouse renal tissue, PAM stain, FIG. 4F",obviously inhibits
same,neutrophilic infiltration,"ASLN mouse (NZB/WF1) [5]; ASLN mouse renal tissue, PAM stain, FIG. 4G",obviously inhibits
same,fibrinoid necrosis,"ASLN mouse (NZB/WF1) [5]; ASLN mouse renal tissue, PAM stain, FIG. 4H",obviously inhibits
same,renal interstitial inflammation,"ASLN mouse (NZB/WF1) [5]; ASLN mouse renal tissue, PAM stain, FIG. 4I",obviously inhibits
same,glomerulonephritis,"ASLN mouse (NZB/WF1) [5]; ASLN mouse renal tissue, PAM stain, FIG. 4J",obviously inhibits
same,anti-dsDNA autoantibody,"ASLN mouse (NZB/WF1) [5]; ASLN mouse, FIG. 4O",inhibits
same,NLRP3,ASLN mouse kidney; FIG. 5B,inhibitory effect
same,IL-1β,ASLN mouse kidney; FIG. 5C,inhibitory effect
same,Atg5,ASLN mouse kidney; FIG. 5G,inhibitory effect
same,LC3B I/II,ASLN mouse kidney; FIG. 5H,inhibitory effect
same,content of p47NADPH,ASLN mouse kidney; FIG. 5J,can inhibit
same,manifestation of NQO1,ASLN mouse kidney; FIG. 5K,can promote
same,activity of GPx,ASLN mouse kidney; FIG. 5L,can enhance
same,"expression level of superoxide anion, kidney",ASLN mouse (NZB/WF1) [6]; FIG. 6A,lower
same,"expression level of superoxide anion, serum",ASLN mouse (NZB/WF1) [6]; FIG. 6B,lower
same,"expression level of superoxide anion, urine",ASLN mouse (NZB/WF1) [6]; FIG. 6C,lower
same,generation of mitochondria ROS,BMDM cells,can inhibit
same,content of CD3+T cells,ASLN mouse (NZB/WF1) [7],can obviously inhibit
